This note sets out measurements from ChEMBL document CHEMBL1133295, “Towards enzyme activated antiprostatic agents” (Bioorg Med Chem Lett, 2000).

Common to all, as to format: functional, cell-based
Conditions in all cases: Homo sapiens

The subject of test [1] is LNCaP. Nature of the test: The compound was evaluated for cytotoxicity by assessing 3H thymidine uptake in LNCaP cell line.
The subject of the next test is MCF7. Nature of the test: The compound was evaluated for cytotoxicity by assessing 3H thymidine uptake in MCF-7 cell line.
The subject of test [2] is HEK293. Nature of the test: The compound was evaluated for cytotoxicity by assessing 3H thymidine uptake in HEK293 cell line.
Test [3] has as its system LNCaP. Nature of the test: The compound was evaluated for cytotoxicity by assessing 3H thymidine uptake in LNCaP cell line in presence of PSA (1 ug).
In test [4] the test system is HEK293. Nature of the test: The compound was evaluated for cytotoxicity by assessing 3H thymidine uptake in HEK293 cell line in presence of PSA (1 ug).

For orientation: IC50 means the point on the concentration scale where inhibition reaches its midpoint. For `CC(C)(C)OC(=O)N[C@@H](Cc1ccc(O)cc1)C(=O)Nc1ccc(COC(=O)N(CCO)CCO)cc1`, the 50% inhibitory concentration (IC50) with LNCaP [1] was above 500 µM; in the test on MCF7, above 900 µM; with HEK293 [2], above 600 µM.

Take `N[C@@H](Cc1ccc(O)cc1)C(=O)Nc1ccc(COC(=O)N(CCCl)CCCl)cc1`: the concentration for half-maximal inhibition (IC50) in the test on LNCaP [1] was 33 µM; in the test with LNCaP [3], 34 µM; in the test with MCF7, above 900 µM; in the test with HEK293 [2] it was 176 µM; in the test on HEK293 [4], 173 µM.
